This note sets out measurements from ChEMBL document CHEMBL5653631, “A Potent and Selective ULK1 Inhibitor Suppresses Autophagy and Sensitizes Cancer Cells to Nutrient Stress” (iScience, 2018).

The target of test [1] is T1, Serine/threonine-protein kinase TAO1 (Homo sapiens) (UniProt Q7L7X3).
T1 sequence (whole entry): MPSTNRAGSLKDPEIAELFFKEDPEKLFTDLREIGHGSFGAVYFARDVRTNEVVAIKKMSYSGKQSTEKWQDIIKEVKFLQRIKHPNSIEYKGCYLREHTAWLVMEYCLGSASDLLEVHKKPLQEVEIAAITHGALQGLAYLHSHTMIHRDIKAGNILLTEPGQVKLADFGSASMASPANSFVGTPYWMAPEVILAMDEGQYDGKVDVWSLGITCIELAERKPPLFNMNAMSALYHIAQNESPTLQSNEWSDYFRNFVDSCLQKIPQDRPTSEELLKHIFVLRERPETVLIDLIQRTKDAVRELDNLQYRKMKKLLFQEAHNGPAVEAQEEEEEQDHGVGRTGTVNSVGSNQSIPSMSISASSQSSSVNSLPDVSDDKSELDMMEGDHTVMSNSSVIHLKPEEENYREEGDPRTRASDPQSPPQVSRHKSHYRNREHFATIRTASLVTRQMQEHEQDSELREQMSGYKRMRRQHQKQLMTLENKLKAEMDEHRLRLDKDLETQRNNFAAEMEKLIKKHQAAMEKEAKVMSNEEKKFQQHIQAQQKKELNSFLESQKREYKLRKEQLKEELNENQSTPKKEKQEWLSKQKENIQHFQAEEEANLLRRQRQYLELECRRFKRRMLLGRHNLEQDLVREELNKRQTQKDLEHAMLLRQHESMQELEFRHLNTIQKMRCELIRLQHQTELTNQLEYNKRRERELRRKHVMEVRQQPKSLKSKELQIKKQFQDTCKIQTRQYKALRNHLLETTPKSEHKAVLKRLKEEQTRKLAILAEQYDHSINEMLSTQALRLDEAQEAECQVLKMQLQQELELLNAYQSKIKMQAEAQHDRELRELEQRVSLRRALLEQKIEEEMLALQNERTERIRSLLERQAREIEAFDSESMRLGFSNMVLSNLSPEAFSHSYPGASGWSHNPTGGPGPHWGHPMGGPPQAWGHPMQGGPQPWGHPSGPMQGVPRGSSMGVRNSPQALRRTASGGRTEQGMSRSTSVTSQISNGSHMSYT
The test can be described thus: Inhibition of human recombinant TAO1 at 40 nM in presence of ATP by radiometric assay relative to control.

Test [2] has as its target Proto-oncogene tyrosine-protein kinase Src (Homo sapiens) (UniProt P12931). The test can be described thus: Inhibition of human recombinant SRC at 40 nM in presence of ATP by radiometric assay relative to control.
Test [3] concerns the target T2, Serine/threonine-protein kinase Sgk2 (Homo sapiens) (UniProt Q9HBY8).
T2 sequence (whole entry): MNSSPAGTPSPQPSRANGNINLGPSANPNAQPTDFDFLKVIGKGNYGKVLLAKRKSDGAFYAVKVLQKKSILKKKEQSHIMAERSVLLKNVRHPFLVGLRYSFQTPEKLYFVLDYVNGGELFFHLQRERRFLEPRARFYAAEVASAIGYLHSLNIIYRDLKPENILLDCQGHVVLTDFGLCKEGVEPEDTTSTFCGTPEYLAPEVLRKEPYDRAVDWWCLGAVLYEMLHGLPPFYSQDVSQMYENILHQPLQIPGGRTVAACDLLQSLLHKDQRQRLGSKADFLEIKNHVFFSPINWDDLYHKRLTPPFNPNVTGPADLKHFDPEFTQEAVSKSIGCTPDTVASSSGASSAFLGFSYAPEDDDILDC
The test can be described thus: Inhibition of human recombinant SGK2 at 40 nM in presence of ATP by radiometric assay relative to control.

Test [4] has as its target T3, Calcium/calmodulin-dependent protein kinase type IV (Homo sapiens) (UniProt Q16566).
T3 sequence (whole entry): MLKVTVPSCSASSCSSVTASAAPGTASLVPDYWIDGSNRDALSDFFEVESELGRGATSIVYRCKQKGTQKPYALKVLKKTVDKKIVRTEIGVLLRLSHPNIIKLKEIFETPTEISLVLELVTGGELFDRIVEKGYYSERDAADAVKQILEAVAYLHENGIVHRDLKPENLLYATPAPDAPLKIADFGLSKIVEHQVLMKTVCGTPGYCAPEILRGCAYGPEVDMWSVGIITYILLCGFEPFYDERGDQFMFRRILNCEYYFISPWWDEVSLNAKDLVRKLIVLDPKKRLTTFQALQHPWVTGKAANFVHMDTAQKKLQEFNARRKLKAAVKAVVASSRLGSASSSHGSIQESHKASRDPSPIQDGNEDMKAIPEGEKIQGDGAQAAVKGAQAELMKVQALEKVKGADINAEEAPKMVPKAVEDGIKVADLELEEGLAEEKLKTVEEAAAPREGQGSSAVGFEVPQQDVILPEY
The test can be described thus: Inhibition of human recombinant CaMK4 at 500 nM in presence of ATP by radiometric assay relative to control.

In test [5] the target is T4, Discoidin domain-containing receptor 2 (Homo sapiens) (UniProt Q16832).
T4 sequence (whole entry): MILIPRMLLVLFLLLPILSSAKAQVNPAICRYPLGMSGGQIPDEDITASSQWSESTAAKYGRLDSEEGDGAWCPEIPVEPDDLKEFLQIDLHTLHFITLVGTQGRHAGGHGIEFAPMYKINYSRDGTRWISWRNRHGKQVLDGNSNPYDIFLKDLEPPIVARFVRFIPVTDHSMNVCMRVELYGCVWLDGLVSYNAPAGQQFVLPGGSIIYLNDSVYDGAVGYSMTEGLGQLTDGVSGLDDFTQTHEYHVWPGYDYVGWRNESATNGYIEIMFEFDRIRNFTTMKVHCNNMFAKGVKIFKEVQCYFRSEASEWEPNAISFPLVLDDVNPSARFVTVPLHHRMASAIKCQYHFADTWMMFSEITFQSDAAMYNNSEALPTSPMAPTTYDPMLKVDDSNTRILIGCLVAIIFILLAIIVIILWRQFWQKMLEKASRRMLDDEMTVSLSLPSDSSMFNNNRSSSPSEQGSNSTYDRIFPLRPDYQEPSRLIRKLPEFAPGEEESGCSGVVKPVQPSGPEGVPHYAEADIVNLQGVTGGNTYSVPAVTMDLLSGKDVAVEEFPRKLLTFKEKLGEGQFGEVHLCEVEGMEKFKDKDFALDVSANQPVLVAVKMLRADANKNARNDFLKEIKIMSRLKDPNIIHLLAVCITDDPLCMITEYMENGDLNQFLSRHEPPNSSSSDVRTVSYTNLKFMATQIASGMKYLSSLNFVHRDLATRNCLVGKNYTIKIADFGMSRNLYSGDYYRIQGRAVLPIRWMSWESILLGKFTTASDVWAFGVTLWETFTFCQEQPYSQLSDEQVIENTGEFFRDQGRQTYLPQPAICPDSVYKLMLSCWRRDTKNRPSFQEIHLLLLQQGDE
The test can be described thus: Inhibition of human recombinant DDR2 at 15 nM related to control ULK1.

The target of test [6] is T4, Discoidin domain-containing receptor 2 (Homo sapiens). As to the kind of experiment: Inhibition of human recombinant DDR2 at 15 nM in presence of ATP by radiometric assay relative to control.

Sequence of Proto-oncogene tyrosine-protein kinase Src (Homo sapiens) (P12931 2-536 limits assumed): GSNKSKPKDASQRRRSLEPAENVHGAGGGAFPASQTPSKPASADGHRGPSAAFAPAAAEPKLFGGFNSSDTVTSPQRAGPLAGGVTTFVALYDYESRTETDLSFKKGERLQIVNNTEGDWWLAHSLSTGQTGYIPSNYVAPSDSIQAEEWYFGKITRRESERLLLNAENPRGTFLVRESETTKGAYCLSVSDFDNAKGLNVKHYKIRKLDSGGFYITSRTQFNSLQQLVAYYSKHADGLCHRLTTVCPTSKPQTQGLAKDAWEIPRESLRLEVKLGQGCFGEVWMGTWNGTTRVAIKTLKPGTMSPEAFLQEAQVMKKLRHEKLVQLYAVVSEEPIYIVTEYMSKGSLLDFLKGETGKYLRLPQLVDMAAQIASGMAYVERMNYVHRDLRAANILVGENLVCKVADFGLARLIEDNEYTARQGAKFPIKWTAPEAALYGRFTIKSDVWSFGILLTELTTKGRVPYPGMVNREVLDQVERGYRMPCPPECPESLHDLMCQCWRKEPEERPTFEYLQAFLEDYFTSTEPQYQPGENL

In the case of `O=C(N[C@@H](C1CC1)C(F)(F)F)c1cc(-c2cnn3cc(-c4ccc(F)cc4)cnc23)cs1`, the inhibition was determined as 0% in test [1], 2% in test [2] and 12% in test [3].
Regarding `CNC(=O)c1ccccc1Oc1nc(Nc2cc(OC)c(OC)c(OC)c2)ncc1Br`, in test [4], the inhibition is 0%.
Take `CC(C)[C@H](NC(=O)c1cc(-c2cnn3cc(-c4ccc(OCCN5CCCCC5)cc4)cnc23)cs1)C(F)(F)F`: the fold change (FC) in test [5] turned out to be 0. Also, the inhibition in test [6] worked out at 0%.

The term inhibition denotes the drop in the measured response relative to a control, in per cent.
